US20010049372A1, “Antiviral nucleoside analogues” (BioChem Pharma Inc., priority 1998, published 2001)
Read-outs that look alike come from different tables or passages of the source.

Key:
PBMCs = experiment: Cellular toxicity by [3H]-thymidine uptake; assay type: cell-based, human; conditions: Table 4; 72 hrs
Protocol: (§1) Cellular toxicity was assessed by [^3H]thymidine uptake (de Muys et al. 1999) and WST-1 staining. In the [^3H]thymidine uptake experiments, Molt-4, HT1080, DU-145, HepG2 and HSF, were plated at a concentration of 1-2×10^3 cells per well (96 well plates). PHA-stimulated PBMCs were cultured at a concentration of 4×10^4 cells per well. Following a 24 hr pre-incubation period, test compounds (10^−4 M to 10^−10 M) were added and the cells were incubated for an additional 72 hrs. [^3H]thymidine was added during the final 18 hr incubation period. The cells were then washed once with PBS, treated with trypsin if the cells were adherent, and resuspended in water (hypotonic lysing of cells). The cellular extract was applied directly to a Tomtec Harvester 96. The 50% cytotoxic concentration (CC50) was determined by comparing the radioactive counts per minute obtained from drug-tested samples to those obtained from the control (untreated) cells.

[1] = Cellular toxicity by [3H]-thymidine uptake; assay type: cell-based; conditions: human
Protocol: (§2) The cellular toxicity of the compounds were assessed on various cells using [^3H]-thymidine uptake. Various cells, including Molt-4, HT1080, DU-145, HepG-2 and HSF, were plated at a concentration of 1-2×10^3 cells per well (96 well plates). After a 24 hr incubation period, 10-fold serial diluted compounds (b 10^−4 M to 10^−10 M) were added to the culture medium and the cells were further incubated for 72 hrs. [^3H]-thymidine was added during the final 18 hr incubation period. After incubation with the [^3H]-thymidine, the cells were washed once with PBS, treated with trypsin if the cells were adherent, and then resuspended in water (hypotonic lysing of cells). The cellular extract was applied directly to a Tomtec Harvester 96. Using this instrument the extracted DNA is adsorbed onto filters, washed and the incorporated [^3H]-thymidine is then counted. The 50% cytotoxic concentration (CC50) was determined by comparing the radioactive counts per minute of the samples in the presence of the compounds against the control. The cellular toxicity of the compounds was also tested by WST-1 staining through assessing proliferation of MT-2, H9, Jurkat, U937, and CBMCs. The established cell lines were cultured in RPMI medium in 96-well plates at a density of 5×10^4 cells/well while CBMCs were plated at a concentration of 0.5×10^6/well. A 10-fold serial diluted (10^−4-10^−7 M) compound was added at day zero. At day 4, the cells were passaged by changing half medium containing appropriately diluted compound. The cell activities were assessed at day 7 using the WST-1 reagent (Boehringer Mannheim) following the protocol provided by the supplier.
as §1

[2] = Body weight gaining effect in mice; assay type: in vivo; conditions: intraperitoneally, mice (CDI, adult, male), 50 mg/kg/day for 5 days
[3] = Cellular toxicity by WST-1 staining; assay type: cell-based; conditions: human, CBMCs, Table 4, day 7, read-out: CC50 (μM) WST-1 CBMC
Protocol: as §2
In the WST-1 staining experiments, cell lines were cultured in RPMI medium in 96-well plates at a density of 5×10^4 cells/well. CBMCs were plated at a concentration of 0.5×10^6/well. Compounds (10^−4-10^−7 M) were added at day zero. Cell viability was assessed on day 7 using the WST-1 reagent (Boehringer Mannheim) following the protocol provided by the supplier.

[4] = Preliminary pharmacokinetic study in male adult rats; assay type: in vivo; conditions: rat; for half-life / AUC / Cmax: male, plasma; for AUC: read-out: AUC; for Cmax: read-out: Cmax
Protocol: The bioavailability of the compounds were evaluated in male adult rats dosed intravenously through the tail vein (5 mg/kg) and orally (20 mg/kg). The plasma samples were collected at 2, 5, 15, 30, 60, 90, 120 and 240 minutes after intravenous dosing and 5, 15, 30, 60, 90, 120, 240 and 360 minutes after oral dosing.
Blood samples (1 ml) were collected from the rat tails into a vacutainer containing EDTA (3 ml) for both iv and po administrations. Plasma samples were prepared by centrifugation at 2000 ×g for 15 minutes at 4° C.
Plasma samples (diluted to 1 ml with water) were loaded onto the Abselut Nexus sorbent (# 1210-3100 ) and drawn through under low vacuum (approximately 5′′ Hg). One milliliter of deionized water was added to the sorbent and drawn through under vacuum. The extraction column was dried for 1 minute using a high vacuum (>10′′ Hg). One milliliter of methanol was added to the Abselut Nexus column and the eluent was collected at 1-2 ml/min. The eluent was evaporated to dryness using a Speed Vac, and the samples were reconstituted in 120 μl H2O; 100 μl was used for injection.

With Nc1nc(NC2CCC2)c2ncn([C@H]3CO[C@@H](CO)O3)c2n1 [Cmpd B (−), (−)-(2R,4R)-2-hydroxymethyl-4-(2′-amino-6′-cyclobutylamino-purine-9′-yl)-1,3-dioxolane] the “CC50 (μM) [^3H-]TTP incorporation in: PBMC” value (PBMCs) was 80/90, the CC50 at 72 h ([1]; DU-145 cells, Table 4, read-out: CC50 (μM) [^3H-]TTP incorporation in: U-145) was 200 µM and the CC50 at 72 h ([1]; HT1080 cells, Table 4, read-out: CC50 (μM) [^3H-]TTP incorporation in: HT1080) was over 250 µM. For the same compound, the CC50 at 72 h ([1]; HepG2 cells, Table 4, read-out: CC50 (μM) [^3H-]TTP incorporation in: HepG2) was over 250 µM, the CC50 at 72 h ([1]; Molt-4 cells, Table 4, read-out: CC50 (μM) [^3H-]TTP incorporation in: Molt-4) was over 250 µM and the “Mice (50 mg/kg/d): body weight gaining effect” value [2] was “No”. The CC50 at 7 days [3] was over 100 µM, the half-life ([4]; iv 5 mg/kg) was 18.6 min and the AUC ([4]; iv 5 mg/kg) was 5600 ng·h/mL. The Cmax ([4]; iv 5 mg/kg) was 13300 ng/mL, the half-life ([4]; oral 20 mg/kg) was 72 min and the AUC ([4]; oral 20 mg/kg) was 3080 ng·h/mL. The Cmax ([4]; oral 20 mg/kg) was 1120 ng/mL and the “Oral BA (%)” value ([4]; oral 20 mg/kg) was 13.75%.
